# What was measured:
# [1] = system: F-Casp9M.I.GFPhigh-transduced T cells; assay: Annexin-V/7-AAD staining of GFPhigh-selected iCasp9M-transduced T cells after CID; format: cell-based, human
# [2] = system: iCasp9M.IRES.IL-12-transduced cells; assay: IL-12 ELISA of supernatant of iCasp9M.I.IL-12-transduced EBV-CTLs; format: cell-based, human; settings: 10 nM CID; detection limit 8 pg/mL
# Description: The concentration of interferon-γ (IFN-γ), IL-2, IL-4, IL-5, IL-10, and tumor necrosis factor-α (TNFα) in CTL culture supernatants was measured using the Human Th1/Th2 cytokine cytometric Bead Array (BD Pharmingen) and the concentration of IL-12 in the culture supernatants was measured by enzyme-linked immunosorbent assay (ELISA; R&D Systems, Minneapolis, Minn.) according to the instructions of the manufacturer.
# To determine whether iCasp9M could effectively destroy cells genetically modified to express an active transgene product, the ability of iCasp9M to eliminate EBV-CTLs stably expressing IL-12 was measured. While IL-12 was undetectable in the supernatant of nontransduced and iCasp9M.IRES.GFP-transduced CTLs, the supernatant of iCasp9M.IRES.IL-12-transduced cells contained 324 pg/mL to 762 pg/mL IL-12. After administration of 10 nM CID, however, the IL-12 in the supernatant fell to undetectable levels (<8 pg/mL). Thus, even without prior sorting for high transgene expressing cells, activation of iCasp9M is sufficient to completely eliminate all T cells producing biologically relevant levels of IL-12 (FIG. 6). The function of iCasp9M when coexpressed with IL-12 is graphically represented by bar graphs in FIG. 6. […] Three days after a second antigenic stimulation, the levels of IL-12 in the culture supernatant were measured by IL-12 ELISA (detection limit of this assay is 8 pg/mL). […]
# [3] = representative example of 3 separate experiments
smiles,measurement,setting,value
CC[C@H](C(=O)N1CCCC[C@H]1C(=O)O[C@H](CCc1ccc(OC)c(OC)c1)c1cccc(OCC(=O)NCC(CNC(=O)COc2cccc([C@@H](CCc3ccc(OC)c(OC)c3)OC(=O)[C@@H]3CCCCN3C(=O)[C@@H](CC)c3cc(OC)c(OC)c(OC)c3)c2)CN(C)C)c1)c1cc(OC)c(OC)c(OC)c1 [AP20187],time to apoptotic characteristics (cell shrinkage and fragmentation) after CID administration,[1]; GFPhigh-selected cells,≤ 14 h
same,"apoptotic phenotype (annexin V+, 7-AAD−)",[1]; [3],64%
same,"necrotic phenotype (annexin V+, 7-AAD+)",[1]; [3],32%
same,IL-12 in the supernatant after CID,[2],< 8 pg/mL
